Data from ChEMBL document CHEMBL1124300, “Deletion sequences of salmon calcitonin that retain the essential biological and conformational features of the intact molecule” (1988).
Residues, ends and D or L forms follow the SMILES beside them.

Tested on: Rattus norvegicus
Experiment: In vivo hypocalcemic activity measuring the hormone-induced decrease of blood calcium levels in rats
Type: functional

SMILES: CC(C)C[C@H](NC(=O)[C@H](CCCCN)NC(=O)CNC(=O)[C@H](CC(C)C)NC(=O)[C@@H](NC(=O)[C@@H]1CSSC[C@H](N)C(=O)N[C@@H](CO)C(=O)N[C@@H](CC(N)=O)C(=O)N[C@@H](CC(C)C)C(=O)N[C@@H](CO)C(=O)N[C@@H]([C@@H](C)O)C(=O)N1)C(C)C)C(=O)N[C@@H](CO)C(=O)N[C@@H](CCC(N)=O)C(=O)N[C@@H](CCC(=O)O)C(=O)N[C@@H](CC(C)C)C(=O)N[C@@H](Cc1c[nH]cn1)C(=O)N[C@@H](CCCCN)C(=O)N1CCC[C@H]1C(=O)N[C@@H](CCCN=C(N)N)C(=O)N[C@H](C(=O)N[C@@H](CC(N)=O)C(=O)N[C@H](C(=O)NCC(=O)N[C@@H](CO)C(=O)NCC(=O)N[C@H](C(=O)N1CCC[C@H]1C(N)=O)[C@@H](C)O)[C@@H](C)O)[C@@H](C)O (HELM PEPTIDE1{C.S.N.L.S.T.C.V.L.G.K.L.S.Q.E.L.H.K.P.R.T.N.T.G.S.G.T.P.[am]}$PEPTIDE1,PEPTIDE1,1:R3-7:R3$$$V2.0)
- Hypocalcemic activity: 6300 IU mg-1

SMILES: CC(C)C[C@H](NC(=O)[C@H](CCCCN)NC(=O)CNC(=O)[C@H](CC(C)C)NC(=O)[C@@H](NC(=O)[C@@H]1CSSC[C@H](N)C(=O)N[C@@H](CO)C(=O)N[C@@H](CC(N)=O)C(=O)N[C@@H](CC(C)C)C(=O)N[C@@H](CO)C(=O)N[C@@H]([C@@H](C)O)C(=O)N1)C(C)C)C(=O)N[C@@H](CO)C(=O)N[C@@H](CCC(N)=O)C(=O)N[C@@H](CCC(=O)O)C(=O)N[C@@H](CC(C)C)C(=O)N[C@@H](Cc1c[nH]cn1)C(=O)N[C@@H](CCCCN)C(=O)N[C@@H](CC(C)C)C(=O)N[C@H](C(=O)N[C@@H](Cc1ccc(O)cc1)C(=O)N1CCC[C@H]1C(=O)N[C@@H](CCCN=C(N)N)C(=O)N[C@H](C(=O)N[C@@H](CC(N)=O)C(=O)N[C@H](C(=O)NCC(=O)N[C@@H](CO)C(=O)NCC(=O)N[C@H](C(=O)N1CCC[C@H]1C(N)=O)[C@@H](C)O)[C@@H](C)O)[C@@H](C)O)[C@@H](C)O (HELM PEPTIDE1{C.S.N.L.S.T.C.V.L.G.K.L.S.Q.E.L.H.K.L.T.Y.P.R.T.N.T.G.S.G.T.P.[am]}$PEPTIDE1,PEPTIDE1,1:R3-7:R3$$$V2.0)
- Hypocalcemic activity: 4000 IU mg-1

SMILES: CC(C)C[C@H](NC(=O)[C@H](CCCCN)NC(=O)CNC(=O)[C@H](CC(C)C)NC(=O)[C@@H](NC(=O)[C@@H]1CSSC[C@H](N)C(=O)N[C@@H](CO)C(=O)N[C@@H](CC(N)=O)C(=O)N[C@@H](CC(C)C)C(=O)N[C@@H](CO)C(=O)N[C@@H]([C@@H](C)O)C(=O)N1)C(C)C)C(=O)N[C@@H](CO)C(=O)N[C@@H](CCC(N)=O)C(=O)N[C@@H](CCC(=O)O)C(=O)N[C@@H](CC(C)C)C(=O)N[C@@H](Cc1c[nH]cn1)C(=O)N[C@@H](CCCCN)C(=O)N[C@@H](CC(C)C)C(=O)N[C@@H](CCC(N)=O)C(=O)N[C@H](C(=O)N[C@@H](Cc1ccc(O)cc1)C(=O)N1CCC[C@H]1C(=O)N[C@@H](CCCNC(=N)N)C(=O)N[C@H](C(=O)N[C@@H](CC(N)=O)C(=O)N[C@H](C(=O)NCC(=O)N[C@@H](CO)C(=O)NCC(=O)N[C@H](C(=O)N1CCC[C@H]1C(N)=O)[C@@H](C)O)[C@@H](C)O)[C@@H](C)O)[C@@H](C)O [CALCITONIN SALMON]
- Hypocalcemic activity: 4500 IU mg-1

SMILES: CC(C)C[C@H](NC(=O)[C@H](CCCCN)NC(=O)CNC(=O)[C@H](CC(C)C)NC(=O)[C@@H](NC(=O)[C@@H]1CSSC[C@H](N)C(=O)N[C@@H](CO)C(=O)N[C@@H](CC(N)=O)C(=O)N[C@@H](CC(C)C)C(=O)N[C@@H](CO)C(=O)N[C@@H]([C@@H](C)O)C(=O)N1)C(C)C)C(=O)N[C@@H](CO)C(=O)N[C@@H](CCC(N)=O)C(=O)N[C@@H](CCC(=O)O)C(=O)N[C@@H](CC(C)C)C(=O)N[C@@H](Cc1c[nH]cn1)C(=O)N[C@@H](CCCCN)C(=O)N[C@@H](CCC(N)=O)C(=O)N[C@H](C(=O)N[C@@H](Cc1ccc(O)cc1)C(=O)N1CCC[C@H]1C(=O)N[C@@H](CCCN=C(N)N)C(=O)N[C@H](C(=O)N[C@@H](CC(N)=O)C(=O)N[C@H](C(=O)NCC(=O)N[C@@H](CO)C(=O)NCC(=O)N[C@H](C(=O)N1CCC[C@H]1C(N)=O)[C@@H](C)O)[C@@H](C)O)[C@@H](C)O)[C@@H](C)O (HELM PEPTIDE1{C.S.N.L.S.T.C.V.L.G.K.L.S.Q.E.L.H.K.Q.T.Y.P.R.T.N.T.G.S.G.T.P.[am]}$PEPTIDE1,PEPTIDE1,1:R3-7:R3$$$V2.0)
- Hypocalcemic activity: 8000 IU mg-1

SMILES: CC(C)C[C@H](NC(=O)[C@H](CCCCN)NC(=O)CNC(=O)[C@H](CC(C)C)NC(=O)[C@@H](NC(=O)[C@@H]1CSSC[C@H](N)C(=O)N[C@@H](CO)C(=O)N[C@@H](CC(N)=O)C(=O)N[C@@H](CC(C)C)C(=O)N[C@@H](CO)C(=O)N[C@@H]([C@@H](C)O)C(=O)N1)C(C)C)C(=O)N[C@@H](CO)C(=O)N[C@@H](CCC(N)=O)C(=O)N[C@@H](CCC(=O)O)C(=O)N[C@@H](CC(C)C)C(=O)N[C@@H](Cc1c[nH]cn1)C(=O)N[C@@H](CCCCN)C(=O)N[C@H](C(=O)N[C@@H](Cc1ccc(O)cc1)C(=O)N1CCC[C@H]1C(=O)N[C@@H](CCCN=C(N)N)C(=O)N[C@H](C(=O)N[C@@H](CC(N)=O)C(=O)N[C@H](C(=O)NCC(=O)N[C@@H](CO)C(=O)NCC(=O)N[C@H](C(=O)N1CCC[C@H]1C(N)=O)[C@@H](C)O)[C@@H](C)O)[C@@H](C)O)[C@@H](C)O (HELM PEPTIDE1{C.S.N.L.S.T.C.V.L.G.K.L.S.Q.E.L.H.K.T.Y.P.R.T.N.T.G.S.G.T.P.[am]}$PEPTIDE1,PEPTIDE1,1:R3-7:R3$$$V2.0)
- Hypocalcemic activity: 6400 IU mg-1

SMILES: CC(C)C[C@H](NC(=O)[C@H](CCCCN)NC(=O)CNC(=O)[C@H](CC(C)C)NC(=O)[C@@H](NC(=O)[C@@H]1CSSC[C@H](N)C(=O)N[C@@H](CO)C(=O)N[C@@H](CC(N)=O)C(=O)N[C@@H](CC(C)C)C(=O)N[C@@H](CO)C(=O)N[C@@H]([C@@H](C)O)C(=O)N1)C(C)C)C(=O)N[C@@H](CO)C(=O)N[C@@H](CCC(N)=O)C(=O)N[C@@H](CCC(=O)O)C(=O)N[C@@H](CC(C)C)C(=O)N[C@@H](Cc1c[nH]cn1)C(=O)N[C@@H](CCCCN)C(=O)N[C@@H](CC(C)C)C(=O)N[C@@H](CCC(N)=O)C(=O)N[C@H](C(=O)N1CCC[C@H]1C(=O)N[C@@H](CCCN=C(N)N)C(=O)N[C@H](C(=O)N[C@@H](CC(N)=O)C(=O)N[C@H](C(=O)NCC(=O)N[C@@H](CO)C(=O)NCC(=O)N[C@H](C(=O)N1CCC[C@H]1C(N)=O)[C@@H](C)O)[C@@H](C)O)[C@@H](C)O)[C@@H](C)O (HELM PEPTIDE1{C.S.N.L.S.T.C.V.L.G.K.L.S.Q.E.L.H.K.L.Q.T.P.R.T.N.T.G.S.G.T.P.[am]}$PEPTIDE1,PEPTIDE1,1:R3-7:R3$$$V2.0)
- Hypocalcemic activity: 5200 IU mg-1

SMILES: CC(C)C[C@H](NC(=O)[C@H](CCCCN)NC(=O)CNC(=O)[C@H](CC(C)C)NC(=O)[C@@H](NC(=O)[C@@H]1CSSC[C@H](N)C(=O)N[C@@H](CO)C(=O)N[C@@H](CC(N)=O)C(=O)N[C@@H](CC(C)C)C(=O)N[C@@H](CO)C(=O)N[C@@H]([C@@H](C)O)C(=O)N1)C(C)C)C(=O)N[C@@H](CO)C(=O)N[C@@H](CCC(N)=O)C(=O)N[C@@H](CCC(=O)O)C(=O)N[C@@H](CC(C)C)C(=O)N[C@@H](Cc1c[nH]cn1)C(=O)N[C@@H](CCCCN)C(=O)N[C@@H](CC(C)C)C(=O)N[C@@H](CCC(N)=O)C(=O)N[C@@H](Cc1ccc(O)cc1)C(=O)N1CCC[C@H]1C(=O)N[C@@H](CCCN=C(N)N)C(=O)N[C@H](C(=O)N[C@@H](CC(N)=O)C(=O)N[C@H](C(=O)NCC(=O)N[C@@H](CO)C(=O)NCC(=O)N[C@H](C(=O)N1CCC[C@H]1C(N)=O)[C@@H](C)O)[C@@H](C)O)[C@@H](C)O (HELM PEPTIDE1{C.S.N.L.S.T.C.V.L.G.K.L.S.Q.E.L.H.K.L.Q.Y.P.R.T.N.T.G.S.G.T.P.[am]}$PEPTIDE1,PEPTIDE1,1:R3-7:R3$$$V2.0)
- Hypocalcemic activity: 5500 IU mg-1

SMILES: CC(C)C[C@H](NC(=O)[C@H](CCCCN)NC(=O)CNC(=O)[C@H](CC(C)C)NC(=O)[C@@H](NC(=O)[C@@H]1CSSC[C@H](N)C(=O)N[C@@H](CO)C(=O)N[C@@H](CC(N)=O)C(=O)N[C@@H](CC(C)C)C(=O)N[C@@H](CO)C(=O)N[C@@H]([C@@H](C)O)C(=O)N1)C(C)C)C(=O)N[C@@H](CO)C(=O)N[C@@H](CCC(N)=O)C(=O)N[C@@H](CCC(=O)O)C(=O)N[C@@H](CC(C)C)C(=O)N[C@@H](Cc1c[nH]cn1)C(=O)N[C@@H](CCCCN)C(=O)N[C@@H](Cc1ccc(O)cc1)C(=O)N1CCC[C@H]1C(=O)N[C@@H](CCCN=C(N)N)C(=O)N[C@H](C(=O)N[C@@H](CC(N)=O)C(=O)N[C@H](C(=O)NCC(=O)N[C@@H](CO)C(=O)NCC(=O)N[C@H](C(=O)N1CCC[C@H]1C(N)=O)[C@@H](C)O)[C@@H](C)O)[C@@H](C)O (HELM PEPTIDE1{C.S.N.L.S.T.C.V.L.G.K.L.S.Q.E.L.H.K.Y.P.R.T.N.T.G.S.G.T.P.[am]}$PEPTIDE1,PEPTIDE1,1:R3-7:R3$$$V2.0)
- Hypocalcemic activity: 7100 IU mg-1
